According to patent US20230226133A1, “METHOD FOR EXTRACTING CERAMIDE-CONTAINING MATERIAL OR CERAMIDE FROM WHOLE APPLES AND/OR APPLE JUICE EXTRACTION RESIDUE, AND COMPOSITION INCLUDING SAID CERAMIDE” (priority 2020, published 2023):

Key:
[1] = tested on: MEK/ERK signaling system in PC-12 cells; assay: MEK-ERK signaling system in neural model cells with MEK inhibitor (western blot); assay type: cell-based, rat; conditions: UO126 10 μM added 30 minutes before 30 μg/mL ceramide-containing matter
Protocol: An inhibitor of MEK that was the upstream kinase of extracellular signal-regulated kinase (ERK1/2) was used to make an estimation of the effect of the ceramide-containing matter on the MEK/ERK signaling system in PC-12 cells. The PC-12 cells were cultured in a D-MEM culture medium containing 5% bovine serum and 5% horse serum. The MEK inhibitor UO126 was dissolved in dimethyl-sulfoxide (DMSO), and the resulting solution was added to the cells in such an amount as to give 10 μM, and 30 minutes after that, the ceramide-containing matter dissolved in DMSO was added to the cells in such an amount as to give 30 μg/mL for 10-minute culture. After culture, the cells were collected for estimation of the phosphorylation ERK1/2 (phospho ERK1/2) level important for memory formation by means of the western blot method using anti-phospho ERK1/2 antibody and/or anti-total ERK1/2 antibody. Note here that a sample treated with nobiletin (30 μM) was used as a positive control.

[2] = tested on: memory impairment caused by NMDA receptor blocker MK-801; assay: Passive avoidance test in MK-801 dementia model mice; assay type: in vivo; conditions: MK-801 alone, 0.2 mg/kg body weight subcutaneous, DDY mice
Protocol: In this example, passive avoidance tests using dementia model mice having MK-801 administered thereto were carried out for estimation of effects of the ceramide-containing matter on memory impairments.
More specifically, 7 week old male DDY mice (available from Japan SLC, Inc.) were pre-fed for experimentation. The ceramide-containing matter suspended in an aqueous solution of 0.5% carboxymethyl cellulose sodium (CMC) was orally administrated to the mice once per day in a dose of 100 mg/kg body weight or 500 mg/kg body weight for six days. At the 7th and 8th days from the onset of administration, training and retention trials of passive avoidance testing were carried out. Ninety (90) minutes before the training trial of passive avoidance testing, 100 mg/kg body weight or 500 mg/kg body weight of the ceramide-containing matter or an aqueous solution of solvent 0.5% CMC were orally administrated to the mice, followed by subcutaneous administration of non-competitive NMDA receptor blocker MK-801 (0.2 mg/kg body weight) or a physiological saline solution 60-minute later. Thirty (30) minutes after that, training trial of passive avoidance testing was carried out, and after the elapse of 24 hours, retention testing was carried out. […]

Compound	rise of ERK1/2 phosphorylation level caused by the ceramide-containing matter, after MEK inhibitor pretreatment [1]	reaction latency in retention trial versus solvent control group [2]
N#CC(=C(/N)Sc1ccccc1N)/C(C#N)=C(/N)Sc1ccccc1N [UO126]	kept low	
C[C@]12N[C@H](Cc3ccccc31)c1ccccc12 [MK-801]		significantly lower in the reaction latency
